Experimental findings from article PMC10676384, “Core-dependent post-translational modifications guide the biosynthesis of a new class of hypermodified peptides” (Nature Communications, 2023) are described below.

The assay relates to CcaF. Nature of the assay: In vitro CcaF leader peptide removal assay. Format: biochemical, Chryseobacterium carnipullorum DSM25581. To be noted: substrate:CcaF 100:1 to 20:1; 50 mM Tris-HCl pH 8.0, RT overnight; MALDI-TOF MS. From the text:
To identify the position of each modification and characterize the final product, the leader peptide must be excised. To this end, we focused on the putative peptidase CcaF. The sequence of CcaF is annotated as a S8 (subtilisin type) serine protease and contains a classical Asp-His-Ser catalytic triad. Recombinant CcaF was heterologously expressed in E. coli BL21(DE3) and purified as a polyHis-tagged protein (Supplementary Fig. 7). […] Given the structural divergence amongst these modified peptides, CcaF appears to be a protease with a broad substrate scope.
The leader peptide was removed by protease CcaF. The reactions were performed in a 1.5 mL eppendorf tube with optimized ratio (100:1 to 20:1) of different substrates and CcaF in 50 mM Tris-HCl (pH =8.0) buffer at RT overnight. The substrates are different modified full length precursor peptide and synthetic 10-mer peptide. The reaction was monitored by MALDI-TOF MS, if the digestion was not completed, another 50:1 ratio CcaF protease was added and stay at RT for another 8 hours.

Consider DELSATAAAA [10-mer peptide], for which the “cleavage by protease CcaF” value was “digested at the expected position”.
